Laboratory results taken from ChEMBL document CHEMBL5226346, “Chiral Cyclic Aliphatic Linkers as Building Blocks for Selective Dopamine D2 or D3 Receptor Agonists” (J Med Chem, 2021).

What was measured:
[1] = target: D(3) dopamine receptor (Homo sapiens, UniProt P35462); test: Displacement of [3H]-(R)-(+)7-OH-DPAT from human dopamine D3 receptor expressed in HEK293 cell membranes incubated for 90 mins by microbeta scintillation counting analysis; set-up: species or system Cell membrane
[2] = target: D(2) dopamine receptor (Homo sapiens, UniProt P14416); test: Displacement of [3H]-(R)-(+)7-OH-DPAT from human dopamine D2 receptor expressed in HEK293 cell membranes incubated for 90 mins by microbeta scintillation counting analysis; set-up: species or system Cell membrane
[3] = species: Homo sapiens; test: Selectivity ratio of Ki for displacement of [3H]-N-methylspiperone from human dopamine D2 receptor expressed in HEK293 cell membranes to Ki for displacement of [3H]-N-methylspiperone from human dopamine D3 receptor expressed in HEK293 cell membranes
[4] = system: HEK293; test: Selectivity ratio of Ki for displacement of [3H]-(R)-(+)7-OH-DPAT from human dopamine D2 receptor expressed in HEK293 cell membranes to Ki for displacement of [3H]-(R)-(+)7-OH-DPAT from human dopamine D3 receptor expressed in HEK293 cell membranes; details: Cell membrane
[5] = species: Homo sapiens; test: Selectivity ratio of Ki for displacement of [3H]-(R)-(+)7-OH-DPAT from human dopamine D3 receptor expressed in HEK293 cell membranes to Ki for displacement of [3H]-(R)-(+)7-OH-DPAT from human dopamine D2 receptor expressed in HEK293 cell membranes

Chain of D(2) dopamine receptor (P14416 whole entry): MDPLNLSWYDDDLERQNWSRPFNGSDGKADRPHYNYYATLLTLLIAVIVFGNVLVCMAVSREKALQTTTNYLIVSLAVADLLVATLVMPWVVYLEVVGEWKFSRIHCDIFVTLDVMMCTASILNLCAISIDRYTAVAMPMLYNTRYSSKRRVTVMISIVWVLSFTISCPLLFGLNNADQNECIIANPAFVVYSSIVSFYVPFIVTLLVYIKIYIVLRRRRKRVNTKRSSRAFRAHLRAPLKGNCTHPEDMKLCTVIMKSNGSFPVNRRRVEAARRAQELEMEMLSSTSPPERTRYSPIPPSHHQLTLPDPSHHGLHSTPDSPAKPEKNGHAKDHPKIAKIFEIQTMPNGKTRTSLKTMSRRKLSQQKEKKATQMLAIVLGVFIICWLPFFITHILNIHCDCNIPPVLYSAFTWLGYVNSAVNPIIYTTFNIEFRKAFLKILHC
Chain of D(3) dopamine receptor (P35462 whole entry): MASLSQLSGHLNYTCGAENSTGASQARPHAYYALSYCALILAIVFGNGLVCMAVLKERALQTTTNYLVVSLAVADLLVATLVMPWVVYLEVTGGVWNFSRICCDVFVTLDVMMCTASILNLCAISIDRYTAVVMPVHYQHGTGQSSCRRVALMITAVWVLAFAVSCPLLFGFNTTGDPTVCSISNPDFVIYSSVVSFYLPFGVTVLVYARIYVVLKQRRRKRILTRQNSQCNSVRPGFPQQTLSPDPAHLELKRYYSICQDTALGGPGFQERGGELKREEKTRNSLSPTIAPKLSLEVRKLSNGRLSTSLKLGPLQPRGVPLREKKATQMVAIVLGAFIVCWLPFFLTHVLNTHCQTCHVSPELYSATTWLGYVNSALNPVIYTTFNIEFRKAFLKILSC

SMILES | Ki [1] [nM] | Ki [2] [nM] | Ratio Ki [4] | Ratio Ki [3] | Ratio Ki [5]
C[C@H]1CO[C@@H](c2ccc(N)nc2)CN1CCn1cc(CNC(=O)c2cc3ccccc3[nH]2)nn1 | 6860 | 13500 | 2 | 12 | –
C[C@H]1CO[C@@H](c2ccc(N)nc2)CN1CC(=O)N1CCC(CNC(=O)c2cc3ccccc3[nH]2)C1 (some centres undefined) | 1380 | 1870 | 1.4 | 3.3 | –
CN(CC[C@@H]1CC[C@@H](CNC(=O)c2cc3ccccc3[nH]2)C1)[C@@H]1Cc2cccc3[nH]c(=O)n(c23)C1 (relative stereo) | – | – | – | – | 17
CN[C@@H]1Cc2cccc3[nH]c(=O)n(c23)C1 [SUMANIROLE] | 784 | – | – | – | –
CN(CC[C@@H]1CC[C@H](CNC(=O)c2cc3ccccc3[nH]2)C1)[C@@H]1Cc2cccc3[nH]c(=O)n(c23)C1 (relative stereo) | – | – | – | – | 9.6

Now from value to compound, other results behind:

Ki [1] [nM] | Ki [2] [nM] | Ratio Ki [4] | SMILES | Ratio Ki [3] | Ratio Ki [5]
– | – | 7.5 | C[C@H]1CO[C@@H](c2ccc(N)nc2)CN1C/C=C1\CCC(CNC(=O)c2cc3ccccc3[nH]2)C1 (mixture of isomers) | 76 | –
106 | 9.56 | – | CN(C[C@@H]1C[C@H]1CCNC(=O)c1cc2ccccc2[nH]1)[C@@H]1Cc2cccc3[nH]c(=O)n(c23)C1 | – | 11
22.1 | 49.1 | 2.2 | CN(C[C@H]1C[C@@H]1CCNC(=O)c1cc2ccccc2[nH]1)[C@@H]1Cc2cccc3[nH]c(=O)n(c23)C1 | – | –
